SMILES strings stand for the structures.

The target in the first test is PARP-1 enzyme (Homo sapiens, UniProt P09874). Description: In vitro filtration assay for PARP-1 inhibitory activity.
Sequence of PARP-1 enzyme (P09874 whole entry): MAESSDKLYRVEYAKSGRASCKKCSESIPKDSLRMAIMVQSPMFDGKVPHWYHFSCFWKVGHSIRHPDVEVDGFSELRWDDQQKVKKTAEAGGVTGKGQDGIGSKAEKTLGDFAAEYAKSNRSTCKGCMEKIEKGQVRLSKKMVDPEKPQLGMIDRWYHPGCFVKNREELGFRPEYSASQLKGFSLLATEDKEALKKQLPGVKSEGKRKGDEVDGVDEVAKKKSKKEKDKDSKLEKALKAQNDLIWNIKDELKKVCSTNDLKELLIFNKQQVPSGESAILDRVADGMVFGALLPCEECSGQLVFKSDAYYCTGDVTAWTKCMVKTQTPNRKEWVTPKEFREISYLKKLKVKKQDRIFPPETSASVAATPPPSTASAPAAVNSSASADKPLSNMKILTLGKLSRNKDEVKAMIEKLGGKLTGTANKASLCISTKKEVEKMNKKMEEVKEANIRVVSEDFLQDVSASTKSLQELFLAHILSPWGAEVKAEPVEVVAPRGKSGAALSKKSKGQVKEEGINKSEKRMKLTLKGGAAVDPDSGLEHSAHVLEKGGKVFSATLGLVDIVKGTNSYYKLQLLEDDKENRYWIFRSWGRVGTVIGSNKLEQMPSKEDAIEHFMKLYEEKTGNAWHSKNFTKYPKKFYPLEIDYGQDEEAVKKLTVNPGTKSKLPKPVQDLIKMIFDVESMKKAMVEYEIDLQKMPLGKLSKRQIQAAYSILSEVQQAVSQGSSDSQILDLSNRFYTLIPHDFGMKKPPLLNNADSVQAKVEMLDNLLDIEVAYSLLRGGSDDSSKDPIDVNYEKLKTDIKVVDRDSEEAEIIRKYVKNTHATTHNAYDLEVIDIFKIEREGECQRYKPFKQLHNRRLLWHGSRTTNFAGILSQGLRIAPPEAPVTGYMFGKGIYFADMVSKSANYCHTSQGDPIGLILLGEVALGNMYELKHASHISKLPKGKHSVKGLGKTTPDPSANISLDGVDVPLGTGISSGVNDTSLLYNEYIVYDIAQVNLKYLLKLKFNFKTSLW
Conditions: not given
Format: biochemical. On the procedure:
In Vitro Filtration Assay for PARP-1 Inhibitory Activity
Compounds of the present invention were tested in an in vitro filtration assay assessing PARP-1 activity (triggered in the presence of nicked DNA) by means of its histone poly(ADP-ribosyl)ation activity using [^32P]-NAD as ADP-ribosyl donor. The radioactive ribosylated histones were precipitated by trichloroacetic acid (TCA) in 96-well filterplates and the incorporated [^32P] measured using a scintillation counter
A mixture of histones (stock solution: 5 mg/ml in H2O), NAD^+ (stock solution: 100 mM in H2O), and [^32P]-NAD^+ in incubation buffer (50 mM Tris/HCl, pH 8; 0.2 mM DTT; 4 mM MgCl2) was made. A mixture of the PARP-1 enzyme (5-10 μg/ml) and nicked DNA was also made. The nicked DNA was prepared as described in the in vitro SPA for PARP-1 inhibitory activity. […] of the PARP-1 enzyme/DNA mixture together with 1 μl of compound in DMSO and 25 μl of histones-NAD^+/[^32P]-NAD^+ mixture was added per well of a 96-well filterplate (0.45 μm, supplier Millipore). The final concentrations in the incubation mixture were 2 μg/ml for the histones, 0.1 mM for the NAD^+, […] (0.5 μC) for the [^32P]-NAD^+ and 2 μg/ml for the nicked DNA. Plates were incubated for 15 min. at room temperature and the reaction was terminated by the addition of 10 μl ice cold 100% TCA followed by the addition of 10 μl ice-cold BSA solution (1% in H2O). The protein fraction was allowed to precipitate for 10 min. at 4° C. and plates were vacuum filtered. The plates were subsequently washed with, for each well, 1 ml of 10% ice cold TCA, 1 ml of 5% ice cold TCA and 1 ml of 5% TCA at room temperature. Finally 100 μl of scintillation solution (Microscint 40, Packard) was added to each well and the plates were transferred to a TopCountNXT™ (supplier: Packard) for scintillation counting and values were expressed as counts per minute (cpm). For each experiment, controls (containing PARP-1 enzyme and DMSO without compound), a blank incubation (containing DMSO but no PARP-1 enzyme or compound) and samples (containing PARP-1 enzyme and compound dissolved in DMSO) were run in parallel. All compounds tested were dissolved and eventually further diluted in DMSO. In first instance, compounds were tested at a concentration of 10^−5M. […] In each test, the blank value was subtracted from both the control and the sample values. The control sample represented maximal PARP-1 enzyme activity. For each sample, the amount of cpm was expressed as a percentage of the mean cpm value of the controls. When appropriate, IC50-values (concentration of the drug, needed to reduce the PARP-1 enzyme activity to 50% of the control) were computed using linear interpolation between the experimental points just above and below the 50% level. Herein the effects of test compounds are expressed as pIC50 (the negative log value of the IC50-value). As a reference compound, 4-amino-1,8-naphthalimide was included to validate the filtration assay.
The compound `O=C1NC(CCN2CCC(n3c(=O)[nH]c4ccccc43)CC2)Nc2ccccc21` (stereo not drawn) [Compound 13] had an IC50 of 4660 nM.

Still in this test, the particulars now being: [32P]-NAD, nicked DNA, histones; read-out: in vitro filter assay PARP-1 pIC50 (converted).
For `O=C1NCN(c2ccccc2)C12CCN(CCCc1nc3ccccc3c(=O)[nH]1)CC2` [Compound 2], the IC50 was 4980 nM. Take `O=C(CC1CCN(CCc2nc3ccccc3c(=O)[nH]2)CC1)c1ccc(F)cc1` [Compound 3]: the IC50 is 4260 nM. Still for that read-out and setting: in the case of `NC(=O)C1(c2ccccc2)CCN(CCCc2nc3ccccc3c(=O)[nH]2)CC1` [Compound 4] it was 76.7 nM; in that of `NC(=O)C1(c2ccccc2)CCN(CCCC2NC(=O)c3ccccc3N2)CC1` (stereo not drawn) [Compound 5], 300 nM; in that of `O=C1NC(CCN2CCC3(CC2)C(=O)NCN3c2ccccc2)Nc2ccccc21` (stereo not drawn) [Compound 6], 2140 nM.

For `O=C1NC(CCCN2CCC(n3c(=O)[nH]c4ccccc43)CC2)Nc2ccccc21` (stereo not drawn) [Compound 7], the IC50 is 4160 nM. Same read-out and setting: the value for `O=C(NC1CCN(CCCC2NC(=O)c3ccccc3N2)CC1)c1ccccc1` (stereo not drawn) [Compound 8] was 1570 nM; that for `O=C(c1ccc(F)cc1)C1CCN(CCc2nc3ccccc3c(=O)[nH]2)CC1` [Compound 9] was 5710 nM. With `NC(=O)C1(N2CCOCC2)CCN(CCCc2nc3ccccc3c(=O)[nH]2)CC1` [Compound 11], the IC50 was 1140 nM. The same measure, in the same setting: in the case of `O=C(NC1CCN(CCCc2nc3ccccc3c(=O)[nH]2)CC1)c1ccccc1` [Compound 12] it was 673 nM; in that of `O=C(c1ccc(F)cc1)C1CCN(CCCc2nc3ccccc3c(=O)[nH]2)CC1` [Compound 14], 546 nM.

The values are drawn from US7875621B2, “Substituted 2-alkyl quinazolinone derivatives as PARP inhibitors” (Janssen Pharmaceutica NV, priority 2004, dated 2011).
